Columns and labels:
[1] = system: rat spinal cord injury model; assay: BBB score in rat spinal cord injury model (lateral hemisection model); format: in vivo; conditions: 1 mg/kg/day osmotic minipump; for BBB score: left lower extremity
Experimental: Six-week-old female Wistar rats were used. The rats were purchased from Charles River Laboratories Japan, Inc. (Yokohama, Japan). Anesthesia was performed as follows. A 1:10 dilution of a mixture of three anesthetic agents in physiological saline was administered by intraperitoneal injection. One dose consisted of 0.2 mg/kg of midazolam, 0.015 mg/kg of medetomidine, and 0.25 mg/kg of butorphanol. The rat was placed in a prone position on an operating table, and a dorsal midline incision was made. The T10 vertebral arch was removed to expose the posterior face of the spinal cord, and the left spinal cord was hemisected using a sharp-pointed surgical scalpel (spitz mess). The skin was sutured using a 4-0 nylon thread and the surgery was completed. A comparison was made among three groups: a methylcobalamin treatment group, an untreated group, and a sham group. Immediately after the surgical operation, an osmotic minipump filled with methylcobalamin (1 mg/kg/day) or physiological saline was placed for the methylcobalamin treatment group and the untreated group, respectively, and left in the left dorsal subcutaneous space. The sham group underwent only resection of the Th10 vertebral arch.
Each rat was separately accommodated in a cage, allowed to walk freely, and observed for 5 minutes. According to a conventional method, left-lower-extremity function was evaluated using scores of 0 (no locomotion) to 21 (normal locomotion). The evaluations were performed before surgery, and at 1, 7, 14, 21, and 28 days after the surgery.

[2] = system: tMCAO model C57BL/6J mice; assay: Brain ischemic lesion volume by TTC staining in transient middle cerebral artery occlusion (tMCAO) model; format: in vivo, mouse; conditions: 2 days after tMCAO surgery
Excerpt: Eight- to 9-week-old male C57BL/6J mice (about 24 g) were used. A probe for a laser Doppler blood flow meter was placed on the right skull such that blood flow in the middle cerebral artery could be monitored. The right cervical region was cut and opened, and the external carotid artery was ligated. Then, the common carotid artery was cut, and a nylon thread was inserted into the common carotid artery, and the tip was advanced while the blood flow was checked using a blood flow monitor. When the tip reached the bifurcation of the middle cerebral artery and a decrease in blood flow was observed, this state was held for 1 hour at a rectal temperature of 37° C. Then, the nylon thread was removed, and the common carotid artery was ligated. In order to administer methylcobalamin continuously, an osmotic minipump was placed and left in the dorsal subcutaneous space. […]
At 2 days after the surgery, the mouse (Example 4-1) was sacrificed, and the cerebrum was excised. […] Images were obtained by a stereoscopic microscope, the ischemic lesion area in each slice was calculated, and all ischemic lesion areas of the cerebrum slices were summed up to calculate an ischemic lesion volume. The ischemic lesion area in each slice was calculated by the following formula: Area of unaffected hemisphere—area of affected side intact portion.

[3] = system: rat sciatic nerve crush injury model; assay: Nerve regeneration after sciatic nerve injury (axons, myelinated axons, myelination rate); format: in vivo; conditions: for Myelination ratio / Number of axons / Number of myelinated axons: POD14
Excerpt: Six-week-old male Wistar rats (about 200 g) were used. The left sciatic nerve was exteriorized, and crush injury of the sciatic nerve was made on the proximal side by forceps. The nerve was crushed for 10 seconds three times at 10-second intervals. The fascia and skin were sutured using 3-0 nylon. A non-injury group which underwent only sciatic nerve exposure, an untreated group, and a methylcobalamin treatment group were compared. To administer methylcobalamin continuously, an osmotic minipump was placed and left in the dorsal subcutaneous space, and methylcobalamin was administered at a dose of 1 mg/kg/day. In an untreated group, physiological saline was administered instead of methylcobalamin according to the same procedure.
At 1, 3, 7, and 14 days after the surgery, rats were anesthetized with an anesthetic agent. The left sciatic nerve was collected, fixed with 4% PFA for 7 days and with 20% sucrose for 24 hours, and the fixed nerve was freeze-embedded. The embedded tissue was sliced into a 5-μm-thick slice in a nerve short-axis direction and placed on a glass slide. Slices were obtained from 5 positions of 2.5 mm in the proximal direction from an injured region, the injured region, and 2.5, 5.0, and 7.5 mm in the distal direction. The slices were dried for 1 hour and fixed with 95% methanol for 30 minutes. The fixed slices were blocked and allowed to react with primary antibodies at 4° C. overnight. The cells were further allowed to react with a secondary antibody at room temperature for 1 hour so that the nuclei were labeled with DAPI.
The primary antibodies used were a mouse anti-CD68 monoclonal antibody (Abcam), a rabbit anti-iNOS monoclonal antibody (Abcam), a rabbit anti-CD206 monoclonal antibody (Abeam), a rabbit anti-neurofilament 200 (NF 200) polyclonal antibody (SIGMA), and a mouse anti-myelin basic protein (MBP) monoclonal antibody (Calbiochem). The secondary antibodies used were an Alexa 488-labeled goat anti-mouse IgG antibody (Life Technologies), an Alexa 488-labeled goat anti-rabbit IgG antibody (Life Technologies), an Alexa 568-labeled goat anti-mouse IgG antibody (Life Technologies), and an Alexa 568-labeled goat anti-rabbit IgG antibody (Life Technologies).
Effects of methylcobalamin on nerve regeneration after sciatic nerve injury were analyzed by an immunohistological evaluation method. Specifically, the analysis was carried out as follows. Transvers sections of an injured sciatic nerve obtained at 2 weeks after sciatic nerve injury were used for evaluation. As in the macrophage evaluation, evaluations were carried out for the sections at 2.5 mm in the proximal direction from an injury site, the injury site, and 2.5, 5.0, and 7.5 mm in the distal direction. Regenerated axons were labeled with NF 200, and myelin sheaths were labeled with MBP. The myelination rate of the regenerated axons was calculated by the following formula: Myelination rate (%)=number of myelinated axons per mm^2/number of axons per mm^2×100. More specifically, the analysis was performed in the same manner as in Example 7.

[4] = 5.0 and 7.5 mm in the distal direction, 2 weeks after injury
[5] = 2.5 mm in the proximal direction
[6] = injury site, 2 weeks after sciatic nerve injury, 1 mg/kg/day

C/C1=C2/[N-][C@H]([C@H](CC(N)=O)[C@@]2(C)CCC(=O)NC[C@@H](C)OP(=O)([O-])O[C@H]2[C@@H](O)[C@@H](n3cnc4cc(C)c(C)cc43)O[C@@H]2CO)[C@]2(C)N=C(/C(C)=C3N=C(/C=C4N=C1[C@@H](CCC(N)=O)C\4(C)C)[C@@H](CCC(N)=O)[C@]\3(C)CC(N)=O)[C@@H](CCC(N)=O)[C@]2(C)CC(N)=O.[CH3-].[Co+3] [MeCbl, methylcobalamin]
BBB score ([1]; 0 days after surgery (before surgery)): 21 | left-lower-extremity motor function (BBB score) as compared to the untreated group ([1]; 14, 21, and 28 days after the surgery): significantly improved | BBB score ([1]; 1 day after surgery): 0.17 | BBB score ([1]; 7 days after surgery): 8.33 | BBB score ([1]; 14 days after surgery): 15.50 | BBB score ([1]; 21 days after surgery): 16.33 | BBB score ([1]; 28 days after surgery): 17 | ischemic lesion volume ([2]; 1 mg/kg/day continuous, osmotic minipump): 28.8 | reduction of ischemic lesion volume as compared with the control group ([2]; 1 mg/kg/day): about ½ | myelination rate as compared to the untreated group [3, 4]: significant differences | numbers of axons as compared to the untreated group [3, 4]: significant differences | Myelination ratio ([3]; 2.5 mm in the distal direction): 0.531 | Number of axons ([3]; 2.5 mm in the distal direction): 14478 | Number of myelinated axons ([3]; 2.5 mm in the distal direction): 7620 | Myelination ratio [3, 5]: 0.975 | Number of axons [3, 5]: 16251 | Number of myelinated axons [3, 5]: 15838 | Myelination ratio ([3]; 5.0 mm in the distal direction): 0.253 | Number of axons ([3]; 5.0 mm in the distal direction): 16663 | Number of myelinated axons ([3]; 5.0 mm in the distal direction): 4400 | Myelination ratio ([3]; 7.5 mm in the distal direction): 0.163 | Number of axons ([3]; 7.5 mm in the distal direction): 14678 | Number of myelinated axons ([3]; 7.5 mm in the distal direction): 2473 | Myelination ratio ([3]; Injury site): 0.691 | Number of axons ([3]; Injury site): 14210 | Number of myelinated axons ([3]; Injury site): 9785 | numbers of axons as compared to the untreated group [3, 6]: significantly improved | numbers of myelinated axons as compared to the untreated group [3, 6]: significantly improved

Reference: patent US12029751B2, “Therapeutic agent for nervous system disease” (OSAKA UNIVERSITY, priority 2017, dated 2024)
